Measured values reported in patent US6960582B2, “Guanidino compounds” (Chiron Corporation, priority 2001, dated 2005).

Target: MC4-R (Homo sapiens, UniProt P32245)
Test: cAMP Scintillation Proximity Assay (SPA) in cells expressing MC4-R
Format: cell-based
Details: intercellular cAMP concentration by SPA kit, read-out: in vitro potency (as measured by EC50 value)
Description: EC50 values of test compounds were determined by treating cells expressing MC4-R with test compound and lysing the cells and measuring intercellular cAMP concentration with an Amersham-Pharmacia RPA-559 cAMP Scintillation Proximity Assay (SPA) kit. The following compounds were synthesized and tested according to this assay. The following compounds are merely illustrative and should not be construed as limiting of the instant invention.

Chain of MC4-R (P32245 whole entry, species assumed): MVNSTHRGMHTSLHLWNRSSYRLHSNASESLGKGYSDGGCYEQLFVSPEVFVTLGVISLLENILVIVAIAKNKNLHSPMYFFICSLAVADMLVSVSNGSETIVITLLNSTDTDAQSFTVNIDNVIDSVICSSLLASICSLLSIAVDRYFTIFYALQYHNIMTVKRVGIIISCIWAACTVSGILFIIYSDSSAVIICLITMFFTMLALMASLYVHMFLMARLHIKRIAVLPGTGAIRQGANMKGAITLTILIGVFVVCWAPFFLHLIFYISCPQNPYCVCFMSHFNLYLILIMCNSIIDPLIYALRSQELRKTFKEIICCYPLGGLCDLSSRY

Row | EC50 | Compound
1 | < 3 µM | C[C@@H]1[C@@H](N=C(Nc2ccc3c(c2)CN(CCc2ccc(Cl)cc2Cl)C3=O)N2CCN[C@@H](C)C2)C[C@H]2C[C@@H]1C2(C)C [Example 1, (3S)-N-{2-[2-(2,4-dichlorophenyl)ethyl]-1-oxo-2,3-dihydro-1H-isoindol-5-yl}-3-methyl-N′-[(1S,2S,3S,5R)-2,6,6-trimethylbicyclo[3.1.1]hept-3-yl]piperazine-1-carboximidamide]
2 | < 3 µM | C[C@@H]1[C@@H](N=C(Nc2ccc3c(c2)C(=O)N(CCc2ccc(Cl)cc2Cl)C3)N2CCN[C@@H](C)C2)C[C@H]2C[C@@H]1C2(C)C [Example 3, (3S )-N-{2-[2-(2,4-dichlorophenyl)ethyl]-3-oxo-2,3-dihydro-1H-isoindol-5-yl}-3-methyl-N′-[(1S,2S,3S,5R)-2,6,6-trimethylbicyclo[3.1.1]hept-3-yl]piperazine-1-carboximidamide]
3 | < 3 µM | C[C@@H]1[C@@H](N=C(Nc2ccc3c(c2)C(=O)N(Cc2ccc(Cl)cc2Cl)C3=O)N2CCN[C@@H](C)C2)C[C@H]2C[C@@H]1C2(C)C [Example 4, (3S)-N-[2-(2,4-dichlorobenzyl)-1,3-dioxo-2,3-dihydro-1H-isoindol-5-yl]-3-methyl-N′-[(1S,2S,3S,5R)-2,6,6-trimethylbicyclo[3.1.1]hept-3-yl]piperazine-1-carboximidamide]
4 | < 3 µM | C[C@@H]1[C@@H](N=C(Nc2ccc3c(c2)C(=O)N([C@H](CO)Cc2ccccc2)C3=O)N2CCN[C@@H](C)C2)C[C@H]2C[C@@H]1C2(C)C [Example 5, (3S)-N-{2-[(1S)-1-benzyl-2-hydroxyethyl]-1,3-dioxo-2,3-dihydro-1H-isoindol-5-yl}-3-methyl-N′-[(1S,2S,3S,5R)-2,6,6-trimethylbicyclo[3.1.1]hept-3-yl]piperazine-1-carboximidamide]
5 | < 3 µM | C[C@@H]1[C@@H](N=C(Nc2ccc3c(c2)C(=O)N([C@@H](CO)Cc2ccccc2)C3=O)N2CCN[C@@H](C)C2)C[C@H]2C[C@@H]1C2(C)C [Example 6, (3S)-N-{2-[(1R)-1-benzyl-2-hydroxyethyl]-1,3-dioxo-2,3-dihydro-1H-isoindol-5-yl}-3-methyl-N′-[(1S,2S,3S,5R)-2,6,6-trimethylbicyclo[3.1.1]hept-3-yl]piperazine-1-carboximidamide]
6 | < 3 µM | C[C@@H]1[C@@H](N=C(Nc2ccc3c(c2)C(=O)N([C@H](CO)Cc2ccc(Cl)cc2Cl)C3=O)N2CCN[C@@H](C)C2)C[C@H]2C[C@@H]1C2(C)C [Example 8, (3S )-N-{2-[(1S)-1-(2,4-dichlorobenzyl)-2-hydroxyethyl]-1,3-dioxo-2,3-dihydro-1H-isoindol-5yl}-3-methyl-N′-[(1S,2S,3S,5R)-2,6,6-trimethylbicyclo[3.1.1]hept-3-yl]piperazine-1-carboximidamide]
7 | < 3 µM | C[C@@H]1[C@@H](N=C(Nc2ccc3c(c2)CN([C@H](CO)Cc2ccc(Cl)cc2Cl)C3=O)N2CCN[C@@H](C)C2)C[C@H]2C[C@@H]1C2(C)C [Example 9, (3S)-N-{2-[(1S)-1-(2,4-dichlorobenzyl)-2-hydroxyethyl]-1-oxo-2,3-dihydro-1H-isoindol-5yl}-3-methyl-N′-[(1S,2S,3S,5R)-2,6,6-trimethylbicyclo[3.1.1]hept-3-yl]piperazine-1-carboximidamide]
8 | < 3 µM | COc1ccc(CCN2C(=O)c3ccc(NC(=N[C@H]4C[C@H]5C[C@@H]([C@@H]4C)C5(C)C)N4CCN[C@@H](C)C4)cc3C2=O)c(F)c1 [Example 10, (3S)-N-{2-[2-(2-fluoro-4-methoxyphenyl)ethyl]-1,3-dioxo-2,3-dihydro-1H-isoindol-5yl}-3-methyl-N′-[(1S,2S,3S,5R)-2,6,6-trimethylbicyclo[3.1.1]hept-3-yl]piperazine-1-carboximidamide]
9 | < 3 µM | C[C@@H]1[C@@H](N=C(Nc2ccc3c(c2)C(=O)N(CCc2ccc(F)cc2F)C3=O)N2CCN[C@@H](C)C2)C[C@H]2C[C@@H]1C2(C)C [Example 11, (3S)-N-{2-[2-(2,4-difluorophenyl)ethyl]-1,3-dioxo-2,3-dihydro-1H-isoindol-5yl}-3-methyl-N′-[(1S,2S,3S,5R)-2,6,6-trimethylbicyclo[3.1.1]hept-3-yl]piperazine-1-carboximidamide]
10 | < 3 µM | COc1ccc(CCN2C(=O)c3ccc(NC(=N[C@H]4C[C@H]5C[C@@H]([C@@H]4C)C5(C)C)N4CCN[C@@H](C)C4)cc3C2=O)c(OC)c1 [Example 12, (3S)-N-{2-[2-(2,4-dimethoxyphenyl)ethyl]-1,3-dioxo-2,3-dihydro-1H-isoindol-5-yl}-3-methyl-N′-[(1S,2S,3S,5R)-2,6,6-trimethylbicyclo[3.1.1]hept-3-yl]piperazine-1-carboximidamide]
11 | < 3 µM | Cc1ccc(CCN2C(=O)c3ccc(NC(=N[C@H]4C[C@H]5C[C@@H]([C@@H]4C)C5(C)C)N4CCN[C@@H](C)C4)cc3C2=O)c(C)c1 [Example 13, (3S)-N-{2-[2-(2,4-dimethylphenyl)ethyl]-1,3-dioxo-2,3-dihydro-1H-isoindol-5-yl}-3-methyl-N′-[(1S,2S,3S,5R)-2,6,6-trimethylbicyclo[3.1.1]hept-3-yl]piperazine-1-carboximidamide]
12 | < 3 µM | C[C@@H]1[C@@H](N=C(Nc2ccc3c(c2)C(=O)N([C@@H](CO)[C@@H](O)c2ccccc2)C3=O)N2CCN[C@@H](C)C2)C[C@H]2C[C@@H]1C2(C)C [Example 14, (3S)-N-{2-[(1S ,2S)-2-hydroxy-1-(hydroxymethyl)-2-phenylethyl]-1,3-dioxo-2,3-dihydro-1H-isoindol-5yl}-3-methyl-N′-[(1S,2S,3S,5R)-2,6,6-trimethylbicyclo[3.1.1]hept-3-yl]piperazine-1-carboximidamide]
13 | < 3 µM | C[C@@H]1[C@@H](N=C(Nc2ccc3c(c2)C(=O)N([C@H](CO)[C@H](O)c2ccccc2)C3=O)N2CCN[C@@H](C)C2)C[C@H]2C[C@@H]1C2(C)C [Example 15, (3S)-N-{2-[(1R,2R)-2-hydroxy-1-(hydroxymethyl)-2-phenylethyl]-1,3-dioxo-2,3-dihydro-1H-isoindol-5-yl}-3-methyl-N′-[(1S,2S,3S,5R)-2,6,6-trimethylbicyclo[3.1.1]hept-3-yl]piperazine-1-carboximidamide]
14 | < 3 µM | C[C@@H]1[C@@H](N=C(Nc2ccc3c(c2)C(=O)N([C@@H](CO)[C@H](O)c2ccccc2)C3=O)N2CCN[C@@H](C)C2)C[C@H]2C[C@@H]1C2(C)C [Example 16, (3S )-N-{2-[(1S,2R)-2-hydroxy-1-(hydroxymethyl)-2-phenylethyl]-1,3-dioxo-2,3-dixo-2,3-dihydro-1H-isoindol-5-yl}-3-methyl-N′-[(1S,2S,3S,5R)-2,6,6-trimethylbicyclo[3.1.1]hept-3-yl]piperazine-1-carboximidamide]
15 | < 3 µM | COc1ccc(CCN2Cc3cc(NC(=N[C@H]4C[C@H]5C[C@@H]([C@@H]4C)C5(C)C)N4CCN[C@@H](C)C4)ccc3C2=O)c(F)c1 [Example 17, (3S)-N-{2-[2-(2-fluoro-4-methoxyphenyl)ethyl]-1-oxo-2,3-dihydro-1H-isoindol-5-yl}-3-methyl-N′-[(1S,2S,3S,5R)-2,6,6-trimethylbicyclo[3.1.1]hept-3-yl]piperazine-1-carboximidamide]
16 | < 3 µM | C[C@@H]1[C@@H](N=C(Nc2ccc3c(c2)CN(CCc2ccc(F)cc2F)C3=O)N2CCN[C@@H](C)C2)C[C@H]2C[C@@H]1C2(C)C [Example 18, (3S)-N-{2-[2-(2,4-difluorophenyl)ethyl]-1-oxo-2,3-dihydro-1H-isoindol-5-yl}-3-methyl-N′-[(1S,2S,3S,5R)-2,6,6-trimethylbicyclo[3.1.1]hept-3-yl]piperazine-1-carboximidamide]
17 | < 3 µM | C[C@@H]1[C@@H](N=C(Nc2ccc3c(c2)C(=O)N(CCc2ccc(F)cc2F)C3)N2CCN[C@@H](C)C2)C[C@H]2C[C@@H]1C2(C)C [Example 19, (3S)-N-{2-[2-(2,4-difluorophenyl)ethyl]-3-oxo-2,3-dihydro-1H-isoindol-5-yl}-3-methyl-N′-[(1S,2S,3S,5R)-2,6,6-trimethylbicyclo[3.1.1]hept-3-yl]piperazine-1-carboximidamide]
18 | < 3 µM | Cc1ccc(CCN2Cc3cc(NC(=N[C@H]4C[C@H]5C[C@@H]([C@@H]4C)C5(C)C)N4CCN[C@@H](C)C4)ccc3C2=O)c(C)c1 [Example 20, (3S)-N-{2-[2-(2,4-dimethylphenyl)ethyl]-1-oxo-2,3-dihydro-1H-isoindol-5-yl}-3-methyl-N′-[(1S,2S,3S,5R)-2,6,6-trimethylbicyclo[3.1.1]hept-3-yl]piperazine-1-carboximidamide]
19 | < 3 µM | Cc1ccc(CCN2Cc3ccc(NC(=N[C@H]4C[C@H]5C[C@@H]([C@@H]4C)C5(C)C)N4CCN[C@@H](C)C4)cc3C2=O)c(C)c1 [Example 21, (3S)-N-{2-[2-(2,4-dimethylphenyl)ethyl]-3-oxo-2,3-dihydro-1H-isoindol-5-yl}-3-methyl-N′-[(1S,2S,3S,5R)-2,6,6-trimethylbicyclo[3.1.1]hept-3-yl]piperazine-1-carboximidamide]
20 | < 3 µM | C[C@@H]1[C@@H](N=C(Nc2ccc3c(c2)CCN(CCc2ccc(Cl)cc2Cl)C3=O)N2CCN[C@@H](C)C2)C[C@H]2C[C@@H]1C2(C)C [Example 22, (3S)-N-{2-[2-(2,4-dichlorophenyl)ethyl]-1-oxo-1,2,3,4-tetrahydroisoquinolin-6-yl}-3-methyl-N′-[(1S,2S,3S,5R)-2,6,6-trimethylbicyclo[3.1.1]hept-3-yl]piperazine-1-carboximidamide]
21 | < 3 µM | C[C@@H]1[C@@H](/N=C(\Nc2ccc3[nH]c(CCc4ccc(Cl)cc4Cl)nc3c2)N2CCN[C@@H](C)C2)C[C@H]2C[C@@H]1C2(C)C [Example 23, (3S)-N-{2-[2-(2,4-dichlorophenyl)ethyl]-1H-benzimidazol-5-yl}-3-methyl-N′-[(1S,2S,3S,5R)-2,6,6-trimethylbicyclo[3.1.1]hept-3-yl]piperazine-1-carboximidamide]
